Measured values from patent publication US10660967B2, “Curcumin conjugates and methods of use thereof” (priority 2016, dated 2020).
Where two headings read alike, the source gives them in different places.

Experiments:
[1] = tested on: Streptococcus pyogenes ATCC19615; assay: Antimicrobial MIC, agar dilution
MCF-7 cells = assay: Effect on doxorubicin induced cytotoxicity (MTT); conditions: for Percentage of viable cells MCF-7 (average ± SD): 10 μM DOX in combination with 100 μM curcumin derivative, 48 hr; for viability at 100 µM: Homo sapiens, MCF7, 48 h, read-out: Percentage of viable cells MCF-7 (average ± SD)
Experimental: The effects of curcumin conjugates on doxorubicin induced cytotoxicity were evaluated. In order to further examine whether curcumin derivatives can enhance conventional chemotherapeutic agents, MCF-7 cells were treated with 100 μM curcumin derivatives alone or in combination with 10 μM doxorubicin (DOX) for 48 hr. Control cultures received only medium, vehicle (DMSO), or vehicle+DOX. The percentage of viable cells was determined by MTT assay according to equation (5): […]

[2] = tested on: Pseudomonas aeruginosa ATCC27853; assay: Antimicrobial MIC, agar dilution
[3] = tested on: Salmonella typhi ATCC19430; assay: Antimicrobial MIC, agar dilution; type: cell-based; conditions: Salmonella enterica, read-out: Minimum inhibitory concentration (MIC)
[4] = tested on: Candida albicans (local isolate); assay: Antimicrobial MIC, agar dilution; conditions: Candida albicans, read-out: Minimum inhibitory concentration (MIC)
[5] = tested on: PHA-stimulated splenocytes; assay: Proliferative response of PHA-stimulated splenocytes (MTT assay); type: cell-based; conditions: PHA 5 μg/ml, 72 hr; compounds at 5 μM (method says 10 μM); ratio of O.D. versus vehicle control
Experimental: Immunomodulatory effects of the synthesized curcumin conjugates on the proliferative response of PHA-stimulated splenocytes were evaluated. The effect of curcumin and its amino acid conjugates on splenocyte viability and proliferation in response to a T cell miotgen (Phytohaemagglutinin; PHA) was evaluated using the MTT assay. Freshly prepared splenocytes (1×10^6 cells/200 μl/well) were cultured in a 96-well U-bottom microtiter plate (Nunc) in complete medium. Cells were treated with tested compounds at a final concentration of 10 μM, vehicle (DMSO) or left untreated in triplicate then incubated at 37° C. and 5% CO2. When testing the immunoregulatory effects of the compounds on splenocyte stimulation, PHA (5 μg/ml) was added to the culture media to induce T cell proliferation. The proliferative response to PHA+vehicle and vehicle alone served as controls. After 72 hr, media were removed after pelleting the cells by centrifugation and MTT salt solution (5 mg/ml) was added into each well then incubated at 37° C. for 4 h. Afterwards, formazan crystals were dissolved by adding 150 μl 10% sodium dodecyl sulfate (SDS). Absorbance was measured with a spectrophotometer at 570 nm and reference wavelength of 690 nm.
Splenocyte stimulation index was determined as the ratio of O.D. values in tested compounds versus vehicle control cultures.

[6] = tested on: lipopolysaccharide-stimulated peritoneal macrophages; assay: Production of nitric oxide by lipopolysaccharide-stimulated peritoneal macrophages (Greiss reagent); type: cell-based; parameters: Potency (%): % inhibition of nitric oxide production relative to lipopolysaccharide-stimulated macrophages: concentration or dose not given beside the values; conditions: LPS-stimulated peritoneal macrophages; for Nitric oxide (nitrite) concentration, μM (average ± SD): 24 h, nitrite by Greiss reagent
Experimental: The effects of the synthesized curcumin conjugates on the production of nitric oxide (μM) by lipopolysaccharide-stimulated peritoneal macrophages were evaluated.
Two milliliters of macrophage cells were seeded in 12-well tissue culture plates in nitrite-free medium supplemented with 0.1% bovine serum albumin and incubated at 37° C. LPS±epinephrine, norepinephrine, or dopamine at […] concentrations was added to some wells. The concentrations of LPS used ranged from 0.5 to 10 ng/ml. After incubation for 24 h, supernatants were collected for measuring nitric oxide (NO) by spectrophotometry. The production of NO was determined from the accumulation of nitrite (NO2), the metabolic end product of NO metabolism, in the medium using the Greiss reagent. About equal volumes (100 μl) of sample and Greiss reagent (1:1 mixture of 1% sulfanilamide in 5% phosphoric acid, and 0.1% a-naphthylamine in distilled water) were mixed and incubated at room temperature for 15 min, and absorbance was measured at 532 nm on a spectrophotometer.

[7] = tested on: HepG2 (hepatocellular) carcinoma cell line; assay: Anti-tumor properties, MTT; type: cell-based; conditions: Homo sapiens; HepG2, 100 μM, 72 h; read-out: Percentage growth of tumor cell lines treated with the tested compounds (±SD)
Experimental: (§1) Anti-tumor properties of curcumin conjugates were evaluated. The synthesized curcumin-amino acid conjugates and curcumin itself were screened for their antitumor properties against human tumor cell lines utilizing HepG2 (hepatocellular), MCF7 (breast), and HCT116 (colon) carcinoma cell lines by the standard mitochondrial dependent reduction of yellow MTT [3-(4,5-dimethylthiazol-2-yl)-2,5-diphenyl-tetrazolium bromide] to purple formazan technique. Cancer cells were obtained from the Egyptian Company for Production of Vaccines, Sera and Drugs (VACSERA), Cairo, Egypt. Media, chemicals and supplies for the bio-assay were obtained from Biowest, Gibco and Lonza Companies. Cells were suspended in RPMI-1640 medium for HepG2, DMEMF12 for MCF-7, and DMEM for HCT116 in addition to 1% antibiotic-antimycotic mixture (10 […] potassium penicillin, 10 […] streptomycin sulfate and […] amphotericin B), 10% fetal bovine serum and 1% L-glutamine at 37° C., under 5% CO2 and 95% humidity. Cells were seeded at a concentration of 10×10^3 cells per well in fresh complete growth medium in 96-well tissue culture microtiter plates for 24 h. Media was aspirated, 180 μL fresh medium (without serum) were added and cells were incubated with different concentrations of sample to give a final concentration of 100 μM. 0.5% DMSO was used as a negative control and doxorubicin was used as a positive control (standard reference). Triplicate wells were prepared for each individual tested compound/dose. After 72 h of incubation, the medium was aspirated, 40 μL MTT salt (2.5 mg ml^1) were added to each well and incubated for an additional 4 h at 37° C. To stop the reaction and dissolve the formed crystals, 200 μL of 10% sodium dodecyl sulfate (SDS) in deionized water were added to each well and incubated overnight at 37° C. The absorbance was then measured at 595 nm with a reference wavelength of 620 nm. Data were collected as mean values for experiments performed in triplicates for each compound which had been measured by MTT assay.
(§2) The percentage of cell survival was calculated according to equation (4): […]
(§3) The IC50 was determined using Graph-Pad PRISM version-5 software. Statistical calculations for determination of the mean and standard deviation (SD) values were determined by SPSS 16 software.

[8] = tested on: HCT116 (colon) carcinoma cell line; assay: Anti-tumor properties, MTT; type: cell-based; conditions: Homo sapiens, HCT-116; HCT116, 100 μM, 72 h; read-out: Percentage growth of tumor cell lines treated with the tested compounds (±SD)
Experimental: as §1, §2, §3

[9] = tested on: MCF7 (breast) carcinoma cell line; assay: Anti-tumor properties, MTT; type: cell-based; conditions: Homo sapiens; MCF7, 100 μM, 72 h; read-out: Percentage growth of tumor cell lines treated with the tested compounds (±SD)
Experimental: as §1, §2, §3

[10] = tested on: Staphylococcus aureus ATCC25923; assay: Antimicrobial MIC, agar dilution
[11] = ATCC19615, 18 h, read-out: Minimum inhibitory concentration (MIC)
[12] = ATCC19615, read-out: Minimum inhibitory concentration (MIC)
[13] = ATCC27853, 18 h, read-out: Minimum inhibitory concentration (MIC)
[14] = ATCC27853, read-out: Minimum inhibitory concentration (MIC)
[15] = ATCC25923, 18 h, read-out: Minimum inhibitory concentration (MIC)
[16] = ATCC25923, read-out: Minimum inhibitory concentration (MIC)

SMILES	MIC [1, 11] [µg/mL]	MIC [1, 12] [µM]	Percentage of viable cells MCF-7 (average ± SD) (MCF-7 cells)	viability at 100 µM (MCF-7 cells) [%]	MIC [2, 13] [µg/mL]	MIC [2, 14] [µM]	MIC ([3]; 18 h) [µg/mL]	MIC [3] [µM]	MIC ([4]; 18 h) [µg/mL]	MIC [4] [µM]	Stimulation Index (average ± SD) [5]	Potency (%): % inhibition of nitric oxide production relative to lipopolysaccharide-stimulated macrophages [6] [%]	Nitric oxide (nitrite) concentration, μM (average ± SD) [6] [µM]	activity at 100 µM [7] [%]	activity at 100 µM [8] [%]	activity at 100 µM [9] [%]	MIC [10, 15] [µg/mL]	MIC [10, 16] [µM]
COc1cc(/C=C/C(=O)CC(=O)/C=C/c2ccc(OC(=O)[C@H](Cc3c[nH]c4ccccc34)NC(=O)OCc3ccccc3)c(OC)c2)ccc1OC(=O)[C@H](Cc1c[nH]c2ccccc12)NC(=O)OCc1ccccc1 [Cbz-Trp-Cur, ((1E,6E)-3,5-dioxohepta-1,6-diene-1,7-diyl)bis(2-methoxy-4,1-phenylene) (2S,2′S)-bis(2-(((benzyloxy)carbonyl)amino)-3-(1H-indol-3-yl)propanoate)]	0.5	0.496	45.17 ± 4.04	98.2 ± 2.96	0.25	0.248	0.125	0.124	1	0.991	2.60 ± 0.12	11.08	24.28 ± 0.82	97.6 ± 6.8	100 ± 7	79.5 ± 0.6	0.125	0.124
COc1cc(/C=C/C(=O)CC(=O)/C=C/c2ccc(OC(=O)[C@@H](NC(=O)OCc3ccccc3)C(C)C)c(OC)c2)ccc1OC(=O)[C@@H](NC(=O)OCc1ccccc1)C(C)C [Cbz-Val-Cur, ((1E,6E)-3,5-dioxohepta-1,6-diene-1,7-diyl)bis(2-methoxy-4,1-phenylene) (2S,2′S)-bis(2-(((benzyloxy)carbonyl)amino)-3-methylbutanoate)]	0.5	0.599	49.68 ± 1.46	99.2 ± 2.15	0.25	0.299	0.125	0.15	1	1.2	2.87 ± 0.11	5.68	25.76 ± 0.99	92.4 ± 2.8	112 ± 7.9	85	0.125	0.15
COc1cc(/C=C/C(=O)CC(=O)/C=C/c2ccc(OC(=O)[C@H](C)NC(=O)OCC3c4ccccc4-c4ccccc43)c(OC)c2)ccc1OC(=O)[C@H](C)NC(=O)OCC1c2ccccc2-c2ccccc21 [Fmoc-Ala-Cur, ((1E,6E)-3,5-dioxohepta-1,6-diene-1,7-diyl)bis(2-methoxy-4,1-phenylene) (2S,2′S)-bis(2-((((9H-fluoren-9-yl)methoxy)carbonyl)amino)propanoate)]	0.5	0.524	–	99.2 ± 3.65	0.25	0.262	0.25	0.262	1	1.05	2.22 ± 0.41	20.22	21.79 ± 2.71	78.3 ± 5.1	96.9 ± 3.2	73.6 ± 2.2	0.5	0.524
COc1cc(/C=C/C(=O)CC(=O)/C=C/c2ccc(OC(=O)[C@H](CC(C)C)NC(=O)OCC3c4ccccc4-c4ccccc43)c(OC)c2)ccc1OC(=O)[C@H](CC(C)C)NC(=O)OCC1c2ccccc2-c2ccccc21 [Fmoc-Leu-Cur, ((1E,6E)-3,5-dioxohepta-1,6-diene-1,7-diyl)bis(2-methoxy-4,1-phenylene) (2S,2′S)-bis(2-((((9H-fluoren-9-yl)methoxy)carbonyl)amino)-4-methylpentanoate)]	0.5	0.481	41.16 ± 2.33	98.2 ± 2.98	0.25	0.241	0.5	0.481	0.5	0.481	2.16 ± 0.13	21.88	21.34 ± 0.86	103 ± 2.6	99.5 ± 3.8	83 ± 1.1	0.25	0.241
